Numbered stars: 1 amine (or outer) side, 2 acyl side, 3 side chain; on linkers, the order of the positions; unused ones are H or OH. Square brackets hold non-standard residues; d marks the D form. Side chains are listed from the residue outwards. Ends that are not written are not given here. Peptide text beside a SMILES is read from it. * marks the point of attachment. C20 diacid = O=C(O)CCCCCCCCCCCCCCCCCCC(=O)*; γGlu = O=C(O)[C@H](CCC(=O)[*:2])N[*:1]; AEEA = NCCOCCOCC(=O)O; Aib = CC(C)(N)C(=O)O
Assays:
[1] = Fibril formation of crude library peptides (Thioflavin T); type: physicochemical; design: key: average ThT fluorescence emission at 480 nm (ex 450 nm), raw units; conditions: Physical stability of peptides
Procedure: (§1) Peptides were dissolved in buffers (50 mM sodium acetate at pH 4.0, or 50 mM sodium phosphate at pH 7.0) to 267 μM and incubated for 1-2 hours at room temperature. The samples were then divided into two replicates of 80 μl in a black 384 well plate (μ-clear, Greiner Bio-One) and mixed with Thioflavin T (ThT) to a final concentration of 4 μM. The plate was centrifuged for 2 min at 2000 rpm to remove air bubbles, sealed, and placed in a plate reader (CLARIOstar, BMG). Firstly, turbidity of the samples was measured as the absorbance at 600 nm. Secondly, the plate reader temperature was set to 40° C. and the fluorescence was measured every 10 min for 72 hours by exciting the ThT at 450 nm and measuring the emission at 480 nm. Samples were stressed by shaking the plate at 700 rpm (linear) for five minutes before every measurement, and fibril formation was determined as the average emission for each sample.

[2] = Turbidity of crude library peptides (absorbance at 600 nm); type: physicochemical; conditions: Physical stability of peptides
Procedure: as §1

GLP1R = GLP1R (Homo sapiens, UniProt P43220); assay: hGLP1R potency, cAMP accumulation in CHO-K1 cells stably overexpressing hGLP1R; type: cell-based; design: host or cells: CHO-K1; conditions: for Selectivity: SCTR EC50/GLP1R EC50 ratio; for EC50: cAMP accumulation, CHO-K1 cells overexpressing hGLP1R, read-out: pEC50 hGLPR1 (converted)
Sequence of GLP1R (P43220 24-463): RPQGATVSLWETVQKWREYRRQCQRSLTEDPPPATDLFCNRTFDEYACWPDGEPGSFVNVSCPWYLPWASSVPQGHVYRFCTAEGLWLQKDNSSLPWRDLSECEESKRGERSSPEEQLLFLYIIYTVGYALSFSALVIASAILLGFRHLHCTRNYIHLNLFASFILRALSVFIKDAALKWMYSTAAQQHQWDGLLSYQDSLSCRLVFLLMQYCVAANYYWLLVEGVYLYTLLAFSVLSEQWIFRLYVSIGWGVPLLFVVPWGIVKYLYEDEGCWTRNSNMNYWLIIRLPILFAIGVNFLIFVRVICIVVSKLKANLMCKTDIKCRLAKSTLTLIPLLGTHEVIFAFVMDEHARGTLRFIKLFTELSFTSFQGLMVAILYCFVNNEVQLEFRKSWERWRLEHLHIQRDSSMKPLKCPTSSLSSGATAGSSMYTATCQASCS
From the text: (§2) Crude library peptides are screened in 10-fold serial dilutions of 5 concentrations, n=1 time. Tip change is done for the first two serial dilutions. Compound starting concentration (top) will be adjusted throughout the study if needed.
(§3) Purified peptides are screened in 3-fold serial dilutions of 11 concentrations, n=2 times. Tip change is done for all serial dilutions. Compound starting concentration (top) will be adjusted throughout the study. If the top concentration is adjusted or a 5-fold difference in calculated EC50 values is observed, n is increased by 1. EC50 values were calculated by nonlinear regression using sigmoid concentration-response with variable slope.
(§4) A CHO-K1 cell line stably overexpressing the hGLP1R was obtained from Euroscreen (FAST-0145L), expanded, aliquoted and frozen. An aliquot was thawed and plated in DPBS with 0.05% casein and 0.5 mM IBMX as 2000 cells/well in a 384-well format. The cells were then immediately stimulated for 30 min at room temperature with graded doses of test compound using human GLP-1(7-36) (synthesized at Gubra) as a positive control. cAMP accumulation was measured using a Cisbio assay for Gs coupled receptors (cat. no. 62AM4PEC), where the assay reagents were added as per the manufacturer's instructions and time-resolved fluorescence energy transfer recorded after one hour on a CLARIOstar (BMG Labtech) plate reader.

SCTR = SCTR (Homo sapiens, UniProt P47872); assay: hSCTR potency, cAMP accumulation in CHO-K1 cells stably overexpressing hSCTR; type: cell-based; design: alternatively Euroscreen ES-712-AF; FAST-0161L; host or cells: CHO-K1; conditions: cAMP accumulation, CHO-K1 cells overexpressing hSCTR; read-out: pEC50 hSCTR (converted)
Sequence of SCTR (P47872 23-440): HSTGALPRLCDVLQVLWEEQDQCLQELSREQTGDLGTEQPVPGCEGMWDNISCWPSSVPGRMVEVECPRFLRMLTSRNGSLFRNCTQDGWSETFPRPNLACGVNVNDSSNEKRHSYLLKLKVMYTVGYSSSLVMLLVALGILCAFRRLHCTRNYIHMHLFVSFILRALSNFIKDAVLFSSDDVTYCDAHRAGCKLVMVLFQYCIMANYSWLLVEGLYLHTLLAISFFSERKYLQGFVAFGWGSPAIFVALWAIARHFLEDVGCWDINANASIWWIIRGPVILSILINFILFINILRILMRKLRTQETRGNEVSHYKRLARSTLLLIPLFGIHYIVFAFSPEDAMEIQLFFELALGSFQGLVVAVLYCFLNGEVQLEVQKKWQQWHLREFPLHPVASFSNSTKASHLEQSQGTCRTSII
From the text: as §2, §3
as §4, with “Frozen division arrested CHO-K1 cells stably overexpressing the hSCTR were obtained from PerkinElmer (ES-712-AF). Alternatively, a CHO-K1” for “A CHO-K1”, “the hSCTR” for “the hGLP1R”, “Euroscreen (FAST-0161L),” for “Euroscreen (FAST-0145L),”, “human secretin” for “human GLP-1(7-36)”

[3] = target: human secretin receptor (hSCTR) (human, UniProt P47872 23-440); assay: cell-based or functional assay
Sequence of human secretin receptor (hSCTR) (P47872 23-440): as above

Row | Fibril formation [1] | Turbidity (pH 7) [2] | Selectivity (GLP1R) | EC50 (GLP1R) [nM] | EC50 (SCTR) [nM] | SCTR EC50/GLP1R EC50 ratio (GLP1R; selectivity for hGLP1R over hSCTR, cAMP accumulation in CHO-K1 cells) | pEC50 hSCTR [3] | Molecule
1 | 11494 | 0.08 | 4325 | 0.0398 | 158 |  |  | CC(C)C[C@H](NC(=O)[C@H](Cc1ccccc1)NC(=O)[C@H](CCCNC(=N)N)NC(=O)[C@H](CCC(N)=O)NC(=O)C(C)(C)NC(=O)[C@H](C)NC(=O)[C@H](C)NC(=O)[C@H](CCC(=O)O)NC(=O)[C@H](CCC(=O)O)NC(=O)[C@H](CCCCNC(=O)COCCOCCNC(=O)COCCOCCNC(=O)CC[C@H](NC(=O)CCCCCCCCCCCCCCCCCCC(=O)O)C(=O)O)NC(=O)[C@H](CC(C)C)NC(=O)[C@H](CCCNC(=N)N)NC(=O)[C@H](CO)NC(=O)[C@@H](NC(=O)[C@H](CC(=O)O)NC(=O)[C@H](CO)NC(=O)[C@@H](NC(=O)[C@H](Cc1ccccc1)NC(=O)[C@@H](NC(=O)CNC(=O)[C@H](CCC(=O)O)NC(=O)C(C)(C)NC(=O)[C@@H](N)Cc1c[nH]cn1)[C@@H](C)O)[C@@H](C)O)C(C)C)C(=O)N[C@@H](CCC(=O)O)C(=O)N[C@@H](Cc1c[nH]cn1)C(=O)N[C@@H](CC(C)C)C(=O)N[C@H](C(N)=O)C(C)C [compound 1] (H-H[Aib]EGTFTSDVSRLK([AEEA-AEEA-γGlu-C20 diacid])EEAA[Aib]QRFLEHLV-NH2)
2 | 89647 | 0.08 | 6431 | 0.0794 | 501 |  |  | CC(C)C[C@H](NC(=O)[C@H](Cc1ccccc1)NC(=O)[C@H](CCCNC(=N)N)NC(=O)[C@H](CCC(N)=O)NC(=O)[C@H](C)NC(=O)[C@H](C)NC(=O)[C@H](C)NC(=O)[C@H](Cc1ccccc1)NC(=O)[C@H](CCC(=O)O)NC(=O)[C@H](CCCCNC(=O)COCCOCCNC(=O)COCCOCCNC(=O)CC[C@H](NC(=O)CCCCCCCCCCCCCCCCCCC(=O)O)C(=O)O)NC(=O)[C@H](CC(C)C)NC(=O)[C@H](CCCNC(=N)N)NC(=O)[C@H](CO)NC(=O)[C@@H](NC(=O)[C@H](CC(=O)O)NC(=O)[C@H](CO)NC(=O)[C@@H](NC(=O)[C@H](Cc1ccccc1)NC(=O)[C@@H](NC(=O)CNC(=O)[C@H](CCC(=O)O)NC(=O)C(C)(C)NC(=O)[C@@H](N)Cc1c[nH]cn1)[C@@H](C)O)[C@@H](C)O)C(C)C)C(=O)N[C@@H](CCC(=O)O)C(=O)N[C@@H](Cc1c[nH]cn1)C(=O)N[C@@H](CC(C)C)C(=O)N[C@H](C(N)=O)C(C)C [compound 2] (H-H[Aib]EGTFTSDVSRLK([AEEA-AEEA-γGlu-C20 diacid])EFAAAQRFLEHLV-NH2)
3 | 3949 | 0.08 |  |  |  | 2941711 |  | CC(C)C[C@H](NC(=O)[C@H](Cc1ccccc1)NC(=O)[C@H](CCCNC(=N)N)NC(=O)[C@H](CCC(N)=O)NC(=O)[C@H](CC(C)C)NC(=O)C(C)(C)NC(=O)[C@H](C)NC(=O)[C@H](CCC(=O)O)NC(=O)[C@H](CCC(=O)O)NC(=O)[C@H](CCCCNC(=O)COCCOCCNC(=O)COCCOCCNC(=O)CC[C@H](NC(=O)CCCCCCCCCCCCCCCCCCC(=O)O)C(=O)O)NC(=O)[C@H](CC(C)C)NC(=O)[C@H](Cc1ccc(O)cc1)NC(=O)[C@H](CO)NC(=O)[C@@H](NC(=O)[C@H](CC(=O)O)NC(=O)[C@H](CO)NC(=O)[C@@H](NC(=O)[C@H](Cc1ccccc1)NC(=O)[C@@H](NC(=O)CNC(=O)[C@H](CCC(N)=O)NC(=O)C(C)(C)NC(=O)[C@@H](N)Cc1c[nH]cn1)[C@@H](C)O)[C@@H](C)O)C(C)C)C(=O)N[C@@H](CCC(=O)O)C(=O)N[C@@H](Cc1c[nH]cn1)C(=O)N[C@@H](CC(C)C)C(=O)N[C@H](C(N)=O)C(C)C [compound 156] (H-H[Aib]QGTFTSDVSYLK([AEEA-AEEA-γGlu-C20 diacid])EEA[Aib]LQRFLEHLV-NH2)

Continued, molecule first:

Row | Molecule | Fibril formation [1] | Turbidity (pH 7) [2] | Selectivity (GLP1R) | EC50 (GLP1R) [nM] | EC50 (SCTR) [nM] | SCTR EC50/GLP1R EC50 ratio (GLP1R; selectivity for hGLP1R over hSCTR, cAMP accumulation in CHO-K1 cells) | pEC50 hSCTR [3]
4 | 216 (GUB06-046) (H[Aib]EGTFTSDLSRLLEGAALQRFIQWLV-NH2; N-terminus assumed; SMILES CC[C@H](C)[C@H](NC(=O)[C@H](Cc1ccccc1)NC(=O)[C@H](CCCNC(=N)N)NC(=O)[C@H](CCC(N)=O)NC(=O)[C@H](CC(C)C)NC(=O)[C@H](C)NC(=O)[C@H](C)NC(=O)CNC(=O)[C@H](CCC(=O)O)NC(=O)[C@H](CC(C)C)NC(=O)[C@H](CC(C)C)NC(=O)[C@H](CCCNC(=N)N)NC(=O)[C@H](CO)NC(=O)[C@H](CC(C)C)NC(=O)[C@H](CC(=O)O)NC(=O)[C@H](CO)NC(=O)[C@@H](NC(=O)[C@H](Cc1ccccc1)NC(=O)[C@@H](NC(=O)CNC(=O)[C@H](CCC(=O)O)NC(=O)C(C)(C)NC(=O)[C@@H](N)Cc1c[nH]cn1)[C@@H](C)O)[C@@H](C)O)C(=O)N[C@@H](CCC(N)=O)C(=O)N[C@@H](Cc1c[nH]c2ccccc12)C(=O)N[C@@H](CC(C)C)C(=O)N[C@H](C(N)=O)C(C)C) | 11040 | 0.48 |  |  |  |  | 
5 | H[Aib]EGTFTSDYSRLLEGAALQRFIQWLV-NH2 (N-terminus assumed; SMILES CC[C@H](C)[C@H](NC(=O)[C@H](Cc1ccccc1)NC(=O)[C@H](CCCNC(=N)N)NC(=O)[C@H](CCC(N)=O)NC(=O)[C@H](CC(C)C)NC(=O)[C@H](C)NC(=O)[C@H](C)NC(=O)CNC(=O)[C@H](CCC(=O)O)NC(=O)[C@H](CC(C)C)NC(=O)[C@H](CC(C)C)NC(=O)[C@H](CCCNC(=N)N)NC(=O)[C@H](CO)NC(=O)[C@H](Cc1ccc(O)cc1)NC(=O)[C@H](CC(=O)O)NC(=O)[C@H](CO)NC(=O)[C@@H](NC(=O)[C@H](Cc1ccccc1)NC(=O)[C@@H](NC(=O)CNC(=O)[C@H](CCC(=O)O)NC(=O)C(C)(C)NC(=O)[C@@H](N)Cc1c[nH]cn1)[C@@H](C)O)[C@@H](C)O)C(=O)N[C@@H](CCC(N)=O)C(=O)N[C@@H](Cc1c[nH]c2ccccc12)C(=O)N[C@@H](CC(C)C)C(=O)N[C@H](C(N)=O)C(C)C) [SEQ ID NO: 194] |  |  |  |  |  |  | 8.8 -log M
6 | H[Aib]EGTFTSDWSRLLEGAALQRFIQWLV-NH2 (N-terminus assumed; SMILES CC[C@H](C)[C@H](NC(=O)[C@H](Cc1ccccc1)NC(=O)[C@H](CCCNC(=N)N)NC(=O)[C@H](CCC(N)=O)NC(=O)[C@H](CC(C)C)NC(=O)[C@H](C)NC(=O)[C@H](C)NC(=O)CNC(=O)[C@H](CCC(=O)O)NC(=O)[C@H](CC(C)C)NC(=O)[C@H](CC(C)C)NC(=O)[C@H](CCCNC(=N)N)NC(=O)[C@H](CO)NC(=O)[C@H](Cc1c[nH]c2ccccc12)NC(=O)[C@H](CC(=O)O)NC(=O)[C@H](CO)NC(=O)[C@@H](NC(=O)[C@H](Cc1ccccc1)NC(=O)[C@@H](NC(=O)CNC(=O)[C@H](CCC(=O)O)NC(=O)C(C)(C)NC(=O)[C@@H](N)Cc1c[nH]cn1)[C@@H](C)O)[C@@H](C)O)C(=O)N[C@@H](CCC(N)=O)C(=O)N[C@@H](Cc1c[nH]c2ccccc12)C(=O)N[C@@H](CC(C)C)C(=O)N[C@H](C(N)=O)C(C)C) [SEQ ID NO: 186] |  |  |  |  |  |  | 8.2 -log M
